Assay results: PubChem BioAssay AID489027 (Sanford-Burnham Center for Chemical Genomics, 2010)
pEC50: −log10 of the molar value. Activity calls are given as the source filed them. The rule behind the calls is not given here.

These molecules were tested against UPR counterscreen luciferase reporter, luminescence (assay: luciferase reporter activation, UPR counterscreen line – cell-based, luminescence, counter-screen for adaptive UPR activator project, dose response (AID 489027)).

SMILES	EC50	pEC50
Cc1ccc2c(=O)[nH]c(Nc3nc(C)cc(-c4ccccc4)n3)nc2c1	> 80 µM (inactive)	
O=C(Cn1c2ccccc2c(=O)c2cc([N+](=O)[O-])ccc21)Nc1ccccc1Cl	inactive	
Cc1cc(C)c2sc(N(CCCN(C)C)C(=O)c3ccc(S(=O)(=O)N4CCCc5ccccc54)cc3)nc2c1	> 80 µM (inactive)	
COc1ccc(OC)c(NC(=O)c2oc3ccccc3c2NC(=O)C2CC2)c1	> 80 µM (inactive)	
COc1cc([N+](=O)[O-])cc(/C=N/NC(=O)c2ccc(NC(=O)c3ccc(C)cc3)cc2)c1O	inactive	
O=C1c2ccccc2C(=O)N1/N=C/c1ccc(O)c(O)c1	inactive	
COc1ccc2[nH]c3c(c2c1)CCN1C(=O)C(CC(=O)NC/C=C(\C)CCC=C(C)C)C[C@H](C(=O)N2CCOCC2)[C@@]31CCC1CCCC1 (stereo partly drawn)		4.73
CCOC(=O)c1nnc(-c2ccccc2)nc1Sc1c(Cl)cccc1Cl		4.89
COc1ccc(Cn2c(SCc3ccccc3C)nc3cc(OC)c(OC)cc3c2=N)cc1		5.02
NC(=S)N/N=C/c1ccc(C23CC4CC(CC(C4)C2)C3)cc1		4.86
O=C(Nc1nc(-c2ccc(F)c(F)c2)cs1)Nc1ccc(F)cc1F		4.87
C=C(C)[C@@]12OC3(c4ccccc4)O[C@@H]1C1[C@@H]4O[C@]4(CO)[C@@H](O)[C@]4(O)C(=O)C(C)=C[C@H]4[C@@]1(O3)[C@H](C)[C@H]2OC(=O)/C=C/C=C/c1ccccc1 (stereo partly drawn)	inactive	
CC(=O)c1cccc(N=Cc2c(O)c3ccccc3oc2=O)c1		5.11
Cc1cc(C)c(NC(=O)CSc2nc(COc3ccccc3)nc3ccccc23)c(C)c1	inactive	
CCNC(=O)c1c(NC(=O)c2cc(-c3cc(C)ccc3O)n[nH]2)sc2c1CCCC2	> 80 µM (inactive)	
Cc1ccc(NC(=O)c2cc(S(=O)(=O)N(C)C)ccc2N2CCCC2)cc1F	inactive	
CCCCCCCCCCOC(=O)Cn1c(COc2ccc(Cl)cc2)[n+](C)c2ccccc21	> 80 µM (inactive)	
COc1cc(NC(=O)c2cccs2)ccc1NC(=O)c1cc2ccccc2o1	> 80 µM (inactive)	
COc1ccc(C(=O)Oc2cc3c4c(c2)C(C)=CC(C)(C)N4C(=O)C3=O)cc1OC	inactive	
COc1cc(OC)c2c(-c3cccc(-c4ccc(CO)cc4)c3)cc(=O)oc2c1	> 80 µM (inactive)	
OC(CNCC1CCCO1)Cn1c2ccc(Cl)cc2c2cc(Cl)ccc21 (stereo not drawn)	> 80 µM (inactive)	
CCOc1ccc(-c2nnc(SCC(=O)Nc3ccc4c(c3)c3ccccc3n4CC)n2N)cc1		4.84
Cc1c(O)cc2c(c1O)C(=O)CC(c1ccccc1)O2 (stereo not drawn)		4.96
Cc1ccc2c(n1)sc1c(-c3ccc(Br)cc3)c(C#N)c(N)nc12	> 80 µM (inactive)	

SMILES	EC50	pEC50
COc1cc([C@@H]2c3cc4c(cc3[C@@H](O)[C@H]3COC(=O)[C@H]23)OCO4)cc(OC)c1O[Si](C)(C)C(C)(C)C		4.84
CN(/N=C\c1ccc(O)c(O)c1)c1nc(-c2ccccc2)cc(-c2ccccc2)n1		5.12
CCC(C)(C)C1CCC2(CC1)NC(=O)N(CC(=O)N1CCN(S(=O)(=O)c3cc(C)ccc3C)CC1)C2=O (stereo not drawn)		4.71
Cc1ccc(NC(=O)c2nc[nH]c2C(=O)NCCCNC(=O)c2[nH]cnc2C(=O)Nc2ccc(C)cc2)cc1	> 80 µM (inactive)	
Cc1ccc2nc(SCC(=O)Nc3cc(C(F)(F)F)ccc3N3CCOCC3)[nH]c2c1	inactive	
O=C(N/N=C/c1ccc(O)c(O)c1)c1ccc(CSc2cccc3cccnc23)cc1		4.82
CCCn1c(Nc2nc3ccccc3n2C)nc2ccccc21	inactive	
COC(=O)c1c(C)oc2ccc(N(C(=O)Oc3ccccc3)S(=O)(=O)c3ccc(Cl)c([N+](=O)[O-])c3)cc12		4.90
COc1ccc(-c2ccc3c(c2)S(=O)(=O)c2cccc(C(=O)NCCOc4ccccc4Cl)c2C3=O)cc1OC	> 80 µM (inactive)	
CCCCCc1nc2c(c(=O)c3ccccc3n2C)c(=O)n1C1CCCCCC1		4.82
CCN(CC)c1ccc(/C=C/[N+](=O)[O-])cc1		4.95
Cc1ccc(N2CCN(c3ccc(NCc4nc5ccccc5n4C)cc3)CC2)cc1	inactive	
O=C(Cn1c2ccc(F)cc2c2nc3n(c(=O)c21)CCS3)Nc1ccc(Cl)cc1F	> 80 µM (inactive)	
Cc1ccccc1NC(=O)c1ccc(N/N=C/c2ccccc2O)c([N+](=O)[O-])c1		5.10
Cn1nnnc1Sc1ncnc2scc(-c3ccc(Br)cc3)c12		4.77
O=C(NN1C(=O)/C(=C/c2ccc(O)c(O)c2)SC1=S)c1ccccc1		4.99
Nc1nc(Nc2cccc(C(F)(F)F)c2)nc(C(F)(F)F)n1	inactive	
COc1ccc(OCc2n(CC(=O)OC3CC(C)CCC3C(C)C)c3ccccc3[n+]2C)cc1 (stereo not drawn)	> 80 µM (inactive)	
CCOc1ccccc1NC(=O)Cn1c(=O)n(-c2ccccc2)c(=O)c2oc3ccccc3c21	> 80 µM (inactive)	
CC(=O)c1cccc(Nc2nc(-c3cccc([N+](=O)[O-])c3)cs2)c1	> 80 µM (inactive)	
Cc1ccc2nc(NC(=O)c3ccc(-c4nc5ccccc5s4)s3)sc2c1		4.96
CC1=Nc2ccccc2/C1=C\c1sc(Nc2ccc(C)cc2)nc1O		4.76
O=C(C[n+]1ccc(-c2cc(C(=O)Nc3cccc(C(F)(F)F)c3)c3ccccc3n2)cc1)c1cccc([N+](=O)[O-])c1		4.77
CCOc1cc(/C=N/NC(N)=S)cc(Br)c1OCc1ccccc1C		4.90

SMILES	EC50	pEC50
COc1ccc(N=c2oc3ccc(OC)cc3cc2-c2nc3ccccc3[nH]2)cc1		5.17
CCCCCCCC(=O)Nc1ccc(C(=O)N/N=C/c2cccc([N+](=O)[O-])c2)cc1		5.63
CN(C)S(=O)(=O)c1ccc(N2CCCC2)c(C(=O)Nc2nccs2)c1	inactive	
CCOC(=O)Cc1csc(/N=C/c2c(O)n(-c3ccc(C)c(C)c3)c(=O)c3ccccc23)n1		5.15
Cc1ccc(NC(=O)c2cc(S(=O)(=O)N(C)C)ccc2N2CCCC2)cc1S(=O)(=O)N(C)C		4.72
COc1cccc(-c2c(-c3cc(OC)cc(OC)c3)n(C)c3ccc(-c4cnc(N5CCOCC5)nc4)cc23)c1	inactive	
COc1ccc(-c2c(-c3cc(OC)cc(OC)c3)n(C)c3ccc(-c4cnc(N)nc4)cc23)cc1	> 80 µM (inactive)	
COc1ccccc1-c1sc2cc3c(cc2c1-c1ccc(OCCN2CCCCC2)cc1)OCO3		4.75
COc1ccc(NC(=O)CSc2nc3ccc(Nc4nc(N5CCOCC5)nc(N5CCOCC5)n4)cc3s2)cc1	> 80 µM (inactive)	
CCOc1ccc(/C=C/C(O)=C2/C(=O)NC3(C)CC2c2ccccc2O3)cc1OC (stereo not drawn)	inactive	
Cc1cc(-n2c(SCC(=O)Nc3ccc(F)c(F)c3)nc3n[nH]c(C)c3c2=N)ccc1Cl	> 80 µM (inactive)	
CCOC(=O)C1=C(C)n2c(s/c(=C/c3cccc([N+](=O)[O-])c3)c2=O)=NC1c1ccc(O)c(OC)c1 (stereo not drawn)	inactive	
Cc1cc(NC(=O)c2cc(-c3ccncc3)nc3c(C)cccc23)no1		4.80
CCCCCCCCCCn1c2c(c(=N)c3c1CCC3)CCC2		4.87
CCc1ccc(-n2c(SCC(=O)c3ccc4c(c3)NC(=O)CO4)nc3ccccc3c2=O)cc1		5.03
COc1ccc(-c2coc3cc4oc(=O)cc(-c5ccccc5)c4cc23)cc1F	inactive	
COc1ccc(C2CC(c3c(-c4ccccc4)c4cc(Cl)ccc4[nH]c3=O)=NN2S(C)(=O)=O)cc1 (stereo not drawn)	> 80 µM (inactive)	
COc1cc(CNCCO)cc(Cl)c1OCc1ccc(Cl)cc1Cl	> 80 µM (inactive)	
Cc1nn(Cc2ccccc2)c(C)c1NC(=O)CSc1nc(C2CC2)nc2c1cnn2-c1ccccc1	inactive	
COC(=O)c1c(NC(=O)CC2Nc3ccccc3NC2=O)sc(C)c1C (stereo not drawn)	inactive	
Cc1cc(C)c2c(c1)/C(=c1/sc3n(c1=O)CN(c1ccccc1)CN=3)C(=O)N2		4.98
CCCNC(=O)c1ccc2c(=O)c(O)c(-c3ccc(OC)cc3)[nH]c2c1	> 80 µM (inactive)	
CC1=CC(C)[C@H](/C=N/n2c(=O)[nH]c3c([nH]c4ccc(Br)cc43)c2=O)C(C)C1 (stereo partly drawn)	inactive	
Cc1ccc2c(c1)c(N=NC(N)=S)c(O)n2Cc1ccccc1	> 80 µM (inactive)	

SMILES	EC50	pEC50
CC1CN(S(=O)(=O)c2ccc(C(=O)Nc3nc(-c4cc5ccccc5o4)cs3)cc2)CC(C)O1 (stereo not drawn)		4.88
O=C(Nc1ccc(-c2nc3cc(NC(=O)c4cccs4)ccc3o2)cc1)c1cccs1		5.33
CC(NCC(O)COCCC12CC3CC(CC(C3)C1)C2)c1ccccc1 (stereo not drawn)	> 80 µM (inactive)	
CCOC(=O)c1cc(-c2ccccc2)sc1NC(=O)c1ccc(OC)cc1	inactive	
CCCCN(CC)S(=O)(=O)c1ccc(C(=O)N(CCCN(C)C)c2nc3cc(C)cc(C)c3s2)cc1		4.94
C/C(=N/NC(=O)c1ccc(Cl)s1)c1ccc(NC(=O)COc2ccc(Cl)cc2)cc1	inactive	
O=C(Nc1nc2ccccc2s1)c1cc2c(s1)-c1ccccc1OC2	inactive	
CCc1nc(N=Nc2c(O)[nH]c3ccccc23)c2c3c(sc2n1)CCC3		4.97
COc1ccc(-c2ccc(C#N)c(SCC(=O)Nc3sc4c(c3C#N)CCC4)n2)cc1OC	> 80 µM (inactive)	
Cc1ccc(NC(=O)c2ccc(N/N=C/c3cccc(O)c3)c([N+](=O)[O-])c2)cc1		5.18
CCOC(=O)c1nnc(-c2ccc(C)cc2)nc1Sc1ccccc1Cl		4.83
COc1ccc(/C=N/Nc2cc(C)nc3ccc(Br)cc23)cc1		5.01
Cc1ccc(NC(=O)Cn2c(/C=C/c3ccccc3)nc3ccccc32)cc1C	> 80 µM (inactive)	
Nc1nc(Nc2ccccc2)nc(NC2CCCCC2)c1[N+](=O)[O-]	inactive	
O=C(CSCc1ccc(Cl)cc1)Nc1ccc(-c2nnc(-c3ccccc3)o2)cc1	> 80 µM (inactive)	
COC(=O)C1C(O)=C(C=Nc2cccc3ccccc23)C(=O)CC1(C)C (stereo not drawn)		5.85
O=C(NCCCn1ccnc1)c1nn2c(C(F)(F)F)cc(-c3ccc(Br)cc3)nc2c1Cl	> 80 µM (inactive)	
O=C(/C=C/c1ccco1)NC(=S)Nc1ccc(O)c(-c2nc3ccccc3s2)c1		4.96
CCOC(=O)c1nnn2c1nc(Nc1cccc(C(F)(F)F)c1)c1ccccc12		5.00
C#CCn1c(=NC(=O)c2ccc(Br)s2)sc2cccc(OC)c21	> 80 µM (inactive)	
COc1ccc([N+](=O)[O-])cc1COc1ccc2c(-c3ccccc3)cc(=O)oc2c1	inactive	
